{"source": "patent US20240115492A1", "about": "“AN ORODISPERSIBLE PHARMACEUTICAL SOLID DOSAGE FORM OF RASAGILINE” (INTAS PHARMACEUTICALS LTD., priority 2021, published 2024)", "origin": "cited, not measured here", "data": [{"smiles": "C#CCN(C)[C@H](C)Cc1ccccc1", "note": "[selegiline]", "values": [{"measurement": "Selegiline plasma exposure, ODT versus conventional tablets", "setting": "10 mg orally disintegrated tablets vs conventional 10 mg tablets", "value": "twelve-time higher"}, {"measurement": "selegiline absorbed through the mucous membrane of the mouth", "setting": "ODT form (10 mg), within 1 minute", "value": "about 30%"}]}]}
